The values below are quoted from earlier work in patent US20080114067A1, “Composition for Recovery From or Prevention of Central Nervous System Fatigue” (priority 2005, published 2008).

Molecules are shown by their SMILES.

For the series, the system named is human placental cell. Particulars: placental brush border tissue.
On to `N[C@@H](CS)C(=O)O` [L-cysteine], for which the “suppression of uptake of tryptophan” value is listed as “could be suppressed”.
For `CC(C)C[C@H](N)C(=O)O` [L-leucine], the “suppression of uptake of tryptophan” value is on record as “could be suppressed”.
On to `CSCC[C@H](N)C(=O)O` [L-methionine], for which the “suppression of uptake of tryptophan” value was “could be suppressed”.
`N[C@@H](Cc1ccccc1)C(=O)O` [L-phenylalanine]: the “suppression of uptake of tryptophan” value is “could be suppressed”.
`CC(C)[C@H](N)C(=O)O` [L-valine]: the “suppression of uptake of tryptophan” value is “could be suppressed”.
